Source: patent US9868705B2, “Tetra-aryl cyclobutane inhibitors of androgen receptor action for the treatment of hormone refractory cancer” (The Board of Trustees of the University of Illinois, priority 2013, dated 2018)
Numbering of substitutions follows the chain as printed.

Legend:
T877A (LNCaP) AR = target: T1, T877A (LNCaP) AR (Homo sapiens, UniProt P10275, T878A); assay: MMTV-luciferase transcription assay in CV-1 cells, T877A AR; assay type: cell-based; details: for AR antagonism, potency in words (structure-activity discussion): MMTV transcription assay in CV-1 cells, compared with 1; for MMTV transcription assay in CV-1 cells T877A (IC50 / inhibition) / IC50: T877A AR; for MMTV transcription assay in CV-1 cells T877A (IC50 / inhibition): values given as powers of ten without unit, or in words; for IC50: values given in μM, read-out: MMTV transcription assay in CV-1 cells T877A (IC50)
T1 construct: expressed in transfected cells; host or cells: CV-1
T1 sequence (P10275 1-920 T878A): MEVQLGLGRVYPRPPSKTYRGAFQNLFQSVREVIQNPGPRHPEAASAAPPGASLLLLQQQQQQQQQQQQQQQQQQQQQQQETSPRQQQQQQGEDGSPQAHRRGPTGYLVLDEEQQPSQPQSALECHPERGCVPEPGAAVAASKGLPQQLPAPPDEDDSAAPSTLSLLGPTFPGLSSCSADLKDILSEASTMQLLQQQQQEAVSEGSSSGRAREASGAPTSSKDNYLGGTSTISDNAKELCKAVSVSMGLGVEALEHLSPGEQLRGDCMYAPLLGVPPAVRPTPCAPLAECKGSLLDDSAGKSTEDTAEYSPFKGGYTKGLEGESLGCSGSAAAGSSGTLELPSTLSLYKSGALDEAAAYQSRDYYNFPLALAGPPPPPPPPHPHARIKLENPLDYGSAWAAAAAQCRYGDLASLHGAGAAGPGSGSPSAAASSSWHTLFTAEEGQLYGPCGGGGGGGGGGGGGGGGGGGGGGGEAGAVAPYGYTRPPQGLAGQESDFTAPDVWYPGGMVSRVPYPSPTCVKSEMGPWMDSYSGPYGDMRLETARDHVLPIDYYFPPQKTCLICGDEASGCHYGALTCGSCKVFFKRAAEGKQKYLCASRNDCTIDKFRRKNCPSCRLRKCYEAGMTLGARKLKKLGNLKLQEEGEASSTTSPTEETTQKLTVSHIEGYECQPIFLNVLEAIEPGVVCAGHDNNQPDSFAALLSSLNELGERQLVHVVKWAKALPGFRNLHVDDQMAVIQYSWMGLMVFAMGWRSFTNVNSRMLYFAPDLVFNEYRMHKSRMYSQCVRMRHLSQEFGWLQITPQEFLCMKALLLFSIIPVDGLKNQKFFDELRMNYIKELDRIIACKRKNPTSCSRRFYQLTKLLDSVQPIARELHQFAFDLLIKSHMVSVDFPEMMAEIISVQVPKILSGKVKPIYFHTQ
Description: (§1) These compounds were screened using an AR-responsive MMTV transcription assay in CV-1 cells, utilizing both wild type and T877A (LNCaP) AR. […]

wild type AR = target: T2, wild type AR (Homo sapiens, UniProt P10275); assay: MMTV-luciferase transcription assay in CV-1 cells, wild type AR; assay type: cell-based; details: wild type AR; for MMTV transcription assay in CV-1 cells WT (IC50 / inhibition): values given as powers of ten without unit, or in words
T2 construct: expressed in transfected cells; host or cells: CV-1
T2 sequence (P10275 1-920): T1 sequence (P10275 1-920 T878A) with A878T
Description: as §1

AR = target: T3, AR (Homo sapiens, UniProt P10275); assay: AR relative binding affinity (RBA)
T3 sequence (P10275 1-920): T1 sequence (P10275 1-920 T878A) with A878T

androgen receptor = assay: Whole-cell competition binding assay using 3H-R1881; details: whole cells; mutant AR and WT-AR

| Structure (SMILES) | AR antagonism, potency in words (structure-activity discussion) (T877A (LNCaP) AR) | MMTV transcription assay in CV-1 cells WT (IC50 / inhibition) (wild type AR) | MMTV transcription assay in CV-1 cells T877A (IC50 / inhibition) (T877A (LNCaP) AR) | other results |
| --- | --- | --- | --- | --- |
| O=c1cc([C@H]2[C@H](c3ccccc3)[C@@H](c3cc(=O)[nH]c(=O)[nH]3)[C@H]2c2ccccc2)[nH]c(=O)[nH]1 [CB-48] | – | – | – | AR RBA (AR): 0.023% |
| CCCNc1cc([C@H]2[C@H](c3ccccc3)[C@@H](c3cc(NCCC)nc(NCCC)n3)[C@H]2c2ccccc2)nc(NCCC)n1 [CB-1] | – | – | – | competition with 3H-R1881 for binding to AR (androgen receptor): compete with 3H-R1881 |
| Clc1cc([C@@H]2[C@H](c3cc(Cl)nc(Cl)n3)[C@@H](c3cccs3)[C@H]2c2cccs2)nc(Cl)n1 [DMP-29] | retained parent compound potency | Incomplete inhibition at 10^−5 Incomplete inhibition at 10^−5 | Incomplete inhibition at 10^−5 | – |
| COc1cc([C@H]2[C@H](c3ccccc3)[C@@H](c3cc(OC)nc(OC)n3)[C@H]2c2ccccc2)nc(OC)n1 [CB-31] | – | – | – | AR RBA (AR): 0.046% |
| COc1cc([C@H]2[C@@H](c3ccccc3)[C@@H](c3cc(=O)[nH]c(=O)[nH]3)[C@@H]2c2ccccc2)nc(OC)n1 [CB-46] | – | – | – | AR RBA (AR): 0.065% |
| CCc1cc([C@H]2[C@H](c3ccccc3)[C@H](c3cc(CC)nc(CC)n3)[C@H]2c2ccccc2)nc(CC)n1 [CB-50] | – | – | – | AR RBA (AR): 0.029% |
| c1ccc([C@H]2[C@H](c3cnccn3)[C@H](c3ccccc3)[C@@H]2c2cnccn2)cc1 [DPM-11/20] | – | No inhibition No inhibition | Mild inhibition at~10^−5 | – |
| COc1cc([C@H]2[C@H](c3ccsc3)[C@H](c3cc(OC)nc(OC)n3)[C@H]2c2ccsc2)nc(OC)n1 [DPM-8] | retained parent compound potency | Incomplete inhibition at 10^−5 Incomplete inhibition at 10^−5 | – | – |
| c1ccc([C@H]2[C@H](c3ccccn3)[C@H](c3ccccc3)[C@H]2c2ccccn2)cc1 [DMP-13] | – | No inhibition No inhibition | – | – |
| COc1nccc([C@H]2[C@H](c3ccccc3)[C@@H](c3ccnc(OC)n3)[C@H]2c2ccccc2)n1 [DMP-6] | – | No inhibition No inhibition | No inhibition No inhibition | – |
| CSc1cc([C@H]2[C@H](c3ccccc3)[C@H](c3cc(SC)nc(SC)n3)[C@H]2c2ccccc2)nc(SC)n1 [CB-34] | – | – | – | AR RBA (AR): 0.002% |
| CC(C)CNc1cc([C@H]2[C@@H](c3ccccc3)[C@H](c3cc(NCC(C)C)nc(NCC(C)C)n3)[C@@H]2c2ccccc2)nc(NCc2cccc3ccccc23)n1 [CB-6] | – | – | – | competition with 3H-R1881 for binding to AR (androgen receptor): compete with 3H-R1881 |
| COc1cc([C@H]2[C@H](c3ccc(Br)cc3)[C@@H](c3cc(OC)nc(OC)n3)[C@H]2c2ccc(Br)cc2)nc(OC)n1 [DMP-10] | inactive | No inhibition | No inhibition | – |
| Clc1cc([C@H]2[C@H](c3cccs3)[C@H](c3cc(Cl)nc(Cl)n3)[C@H]2c2cccs2)nc(Cl)n1 [DMP-28] | retained parent compound potency | Incomplete inhibition at 10^−5 Incomplete inhibition at 10^−5 | – | IC50 (T877A (LNCaP) AR): 2.6 µM |
| CSc1cc([C@H]2[C@H](c3ccccc3)[C@@H](c3cc(SC)nc(SC)n3)[C@H]2c2ccccc2)nc(SC)n1 [CB-35] | – | – | – | AR RBA (AR): 0.027% |
| COc1cc([C@H]2[C@@H](c3ccccc3)[C@H](c3cc(=O)[nH]c(=O)[nH]3)[C@@H]2c2ccccc2)nc(OC)n1 [CB-45] | – | – | – | AR RBA (AR): 0.087% |

Continued, in another order:

| AR antagonism, potency in words (structure-activity discussion) (T877A (LNCaP) AR) | MMTV transcription assay in CV-1 cells WT (IC50 / inhibition) (wild type AR) | MMTV transcription assay in CV-1 cells T877A (IC50 / inhibition) (T877A (LNCaP) AR) | Structure (SMILES) | other results |
| --- | --- | --- | --- | --- |
| decreased activity | No inhibition | – | COc1cncc([C@H]2[C@H](c3ccccc3)[C@H](c3cncc(OC)n3)[C@H]2c2ccccc2)n1 [DPM-18] | – |
| decreased potency | Incomplete inhibition at 10^−5 | – | Clc1cc([C@H]2[C@H](c3ccccc3)[C@H](c3cc(Cl)ncn3)[C@H]2c2ccccc2)ncn1 [DPM-26] | IC50 (T877A (LNCaP) AR): 9 µM |
| comparable potency to 1 | – | – | Cc1cc([C@H]2[C@H](c3ccccc3)[C@H](c3cc(C)nc(Cl)n3)[C@H]2c2ccccc2)nc(Cl)n1 [DPM-30] | IC50 (T877A (LNCaP) AR): 2.89 µM; IC50 (wild type AR; values given in μM, read-out: MMTV transcription assay in CV-1 cells WT (IC50)): 17 µM |
| inactive | No inhibition | No inhibition | Clc1cc([C@H]2[C@H](c3ccc(-c4ccccc4)cc3)[C@H](c3cc(Cl)nc(Cl)n3)[C@H]2c2ccc(-c3ccccc3)cc2)nc(Cl)n1 [DPM-27] | – |
| – | No inhibition No inhibition | No inhibition | c1ccc([C@@H]2[C@H](c3ccccc3)[C@@H](c3ccccn3)[C@H]2c2ccccn2)cc1 [DPM-14] | – |
| decreased activity | – | – | COc1cncc([C@H]2[C@H](c3ccccc3)[C@@H](c3cncc(OC)n3)[C@H]2c2ccccc2)n1 [DPM-17] | – |
| decreased activity | No inhibition | – | COc1cncc([C@@H]2[C@@H](c3ccccc3)[C@@H](c3ccccc3)[C@@H]2c2cncc(OC)n2)n1 [DPM-15] | – |
| decreased activity | No inhibition | Slight inhibition at 10^−5 | COc1cncc([C@@H]2[C@@H](c3ccccc3)[C@@H](c3ccccc3)[C@@H]2c2cncc(OC)n2)n1 [DPM-16] | – |
| – | No inhibition No inhibition | No inhibition No inhibition | COc1nccc([C@H]2[C@H](c3ccccc3)[C@H](c3ccnc(OC)n3)[C@H]2c2ccccc2)n1 [DPM-5] | – |
| – | No inhibition No inhibition | No inhibition | c1ccc([C@@H]2[C@H](c3ccccc3)[C@@H](c3cnccn3)[C@H]2c2cnccn2)cc1 [DPM-12] | – |
